Laboratory results: patent US8029764B2, “Methods for detection of colorectal cancer” (The Johns Hopkins University, priority 2001, dated 2011)

System: colorectal tissue transcripts
Assay: SAGE of normal, adenoma and cancer colorectal tissue (transcript tag counts)
Set-up: species or system human
From the text: In an effort to identify potential molecular markers of early colorectal tumors, we have here analyzed gene expression in benign and malignant colorectal tumors in an unbiased and comprehensive fashion. We used SAGE to analyze global gene expression in normal, benign and malignant colorectal tissue. SAGE is a gene expression profiling method that associates individual mRNA transcripts with 15-base tags derived from specific positions near their 3′ termini (3). The abundance of each tag provides a quantitative measure of the transcript level present within the mRNA population studied. SAGE is not dependent on pre-existing databases of expressed genes, and therefore provides an unbiased view of gene expression profiles. For the current study, SAGE libraries derived from two samples of normal colonic epithelium, two colorectal adenomas, and two colorectal cancers were analyzed.
SAGE. For the initial SAGE^3 of benign tumors, fresh adenomas were obtained from surgical specimens derived from FAP patients. Adenomas from FAP patients were employed because of the ready availability of small lesions and the certainty of inactivation of the APC pathway which initiates the formation of the majority of sporadic tumors. After histopathological verification of the neoplastic nature of the lesion (>70% neoplastic cells), total RNA was isolated by solubilizing the tissue in RNAgents Lysis Buffer (Promega, Madison, Wis.) followed by ultracentrifugation over a cesium chloride gradient. mRNA selection was performed from the purified total RNA using oligo(dT) cellulose (Life Technologies, Gaithersburg, Md.). […] Tags were extracted from the raw sequence data and, after excluding repeated ditags, linker sequences, and tags from the polyrnorphic Major Histocompatibility loci, the resulting tag libraries were compared and statistical analysis performed using SAGE software, version 4.0. Data from the libraries are publicly available at the Uniform Resource Locator (URL) address for the http file type found on the www host server that has a domain name of ncbi.nlm.nih.gov, and a path to the directory SAGE, and detailed SAGE protocols are available at the Uniform Resource Locator (URL) address for the http file type found on the www host server that has a domain name of sagenet.org, and file name of sage_protocol.htn.

[1] = normal colorectal tissue library 1
[2] = normal colorectal tissue library 2

Row | Sequence | AD1 (SAGE tag count) (SAGE library AD1) | AD2 (SAGE tag count) (SAGE library AD2) | CA1 (SAGE tag count) (SAGE library CA1) | CA2 (SAGE tag count) (SAGE library CA2) | NC1 (SAGE tag count) (SAGE library NC1) | NC2 (SAGE tag count) (SAGE library NC2) | AD1 (SAGE tag count) (adenoma library 1) | AD2 (SAGE tag count) (adenoma library 2) | CA1 (SAGE tag count) (cancer library 1) | CA2 (SAGE tag count) (cancer library 2) | NC1 (SAGE tag count) [1] | NC2 (SAGE tag count) [2]
1 | GTGGCGGGAA (chemistry not fully specified) | 1 | 0 | 4 | 0 | 3 | 15 | – | – | – | – | – | –
2 | GGGACGAGTG (chemistry not fully specified) | 1 | 3 | 6 | 1 | 20 | 6 | – | – | – | – | – | –
3 | CAGTGCGTTC (chemistry not fully specified) | 0 | 0 | 3 | 0 | 12 | 3 | – | – | – | – | – | –
4 | GTGGGGGCGC (chemistry not fully specified) | 2 | 0 | 1 | 0 | 5 | 22 | – | – | – | – | – | –
5 | ATACTCCACT (chemistry not fully specified) | 0 | 0 | 10 | 3 | 82 | 59 | – | – | – | – | – | –
6 | CTGGGCCTCT (chemistry not fully specified) | 2 | 2 | 3 | 3 | 22 | 22 | – | – | – | – | – | –
7 | GACCAGTGGC (chemistry not fully specified) | 4 | 0 | 2 | 0 | 21 | 44 | – | – | – | – | – | –
8 | TAAGGCCTTT (chemistry not fully specified; the letters are possibly those of the target site) | – | – | – | – | – | – | 1 | 0 | 0 | 1 | 6 | 9
9 | TGGGGAGAGG (chemistry not fully specified) | – | – | – | – | – | – | 20 | 7 | 3 | 7 | 43 | 18
10 | GCCCAGGGCC (chemistry not fully specified; the letters are possibly those of the target site) | 2 | 1 | 2 | 1 | 4 | 44 | – | – | – | – | – | –
11 | ATTTCAAGAT (chemistry not fully specified) | 0 | 2 | 1 | 0 | 35 | 21 | – | – | – | – | – | –
12 | GTGTTGGGGG (chemistry not fully specified) | – | – | – | – | – | – | 8 | 6 | 1 | 3 | 21 | 19
13 | CGGGAGTCGG (chemistry not fully specified) | 13 | 2 | 9 | 1 | 28 | 30 | – | – | – | – | – | –
14 | TTCCGCGTTC (chemistry not fully specified) | – | – | – | – | – | – | 0 | 0 | 2 | 2 | 5 | 16
15 | GCTGCCCTTG (chemistry not fully specified) | 13 | 6 | 6 | 18 | 44 | 6 | – | – | – | – | – | –
16 | TTGGACCTGG (chemistry not fully specified) | – | – | – | – | – | – | 7 | 18 | 12 | 16 | 33 | 31
17 | CTTCTTGCCC (chemistry not fully specified) | 2 | 2 | 0 | 1 | 29 | 2 | – | – | – | – | – | –

Row | Sequence | AD1 (SAGE tag count) (SAGE library AD1) | AD2 (SAGE tag count) (SAGE library AD2) | CA1 (SAGE tag count) (SAGE library CA1) | CA2 (SAGE tag count) (SAGE library CA2) | NC1 (SAGE tag count) (SAGE library NC1) | NC2 (SAGE tag count) (SAGE library NC2) | AD1 (SAGE tag count) (adenoma library 1) | AD2 (SAGE tag count) (adenoma library 2) | CA1 (SAGE tag count) (cancer library 1) | CA2 (SAGE tag count) (cancer library 2) | NC1 (SAGE tag count) [1] | NC2 (SAGE tag count) [2]
18 | AGGATGGTCC (chemistry not fully specified; the letters are possibly those of the target site) | 5 | 3 | 6 | 8 | 34 | 19 | – | – | – | – | – | –
19 | CTTAGAGGGG (chemistry not fully specified) | 0 | 1 | 1 | 1 | 16 | 22 | – | – | – | – | – | –
20 | GGAGGCGCTC (chemistry not fully specified) | 1 | 1 | 0 | 1 | 5 | 11 | – | – | – | – | – | –
21 | GGCCCTGCAG (chemistry not fully specified) | 1 | 0 | 5 | 1 | 14 | 7 | – | – | – | – | – | –
22 | GGTGAAGAGG (chemistry not fully specified) | 5 | 3 | 10 | 9 | 16 | 32 | – | – | – | – | – | –
23 | AATCACAAAT (chemistry not fully specified) | 1 | 4 | 14 | 3 | 18 | 45 | – | – | – | – | – | –
24 | CCAACACCAG (chemistry not fully specified) | 1 | 0 | 0 | 1 | 9 | 19 | – | – | – | – | – | –
25 | CTGACCTGTG (chemistry not fully specified) | 48 | 18 | 16 | 46 | 88 | 130 | – | – | – | – | – | –
26 | ATGGTCTACG (chemistry not fully specified) | 0 | 0 | 1 | 0 | 10 | 5 | – | – | – | – | – | –
27 | ATGCGGAGTC (chemistry not fully specified) | 5 | 3 | 2 | 4 | 14 | 13 | – | – | – | – | – | –
28 | GACGCGGCGC (chemistry not fully specified) | 10 | 17 | 12 | 17 | 30 | 47 | – | – | – | – | – | –
29 | TTCCACTAAC (chemistry not fully specified) | – | – | – | – | – | – | 7 | 4 | 5 | 5 | 29 | 9
30 | AAGGTAGCAG (chemistry not fully specified) | 2 | 4 | 2 | 4 | 15 | 16 | – | – | – | – | – | –
31 | GACATCAAGT (chemistry not fully specified) | 23 | 14 | 47 | 17 | 198 | 87 | – | – | – | – | – | –
32 | ATGGTGGGGG (chemistry not fully specified) | 11 | 9 | 1 | 2 | 25 | 30 | – | – | – | – | – | –
33 | TCGGAGCTGT (chemistry not fully specified) | – | – | – | – | – | – | 9 | 6 | 3 | 0 | 21 | 20
